Test results published in patent publication US7432225B2, “Selective herbicides based on substituted cyclic keto-enols and safeners” (Bayer CropScience AG, priority 2001, dated 2008).

Key:
Winter wheat = test: Post-emergence test, degree of damage to crop plants; format: in vivo; settings: rated about three weeks after application
Description: (§1) The active compound or safener components are in each case dissolved in a few ml (generally 2-3 ml) of solvent (generally acetone or N,N-dimethyl-formamide), and the solutions are combined and then—if appropriate after addition of an emulsifier—diluted with water to the desired concentration. In general, an aqueous spray liquor was prepared using 0.1% of the additive Renex-36.
(§2) The test plants are grown under controlled conditions (temperature, light, atmospheric humidity) in a greenhouse. The test plants are sprayed when they have reached a height of 5-15 cm. The concentration of the spray liquor is chosen such that the particular amounts of active compound desired are applied in 500 l of water/ha.
(§3) After spraying, the pots with the test plants are kept in a greenhouse chamber under controlled conditions (temperature, light, atmospheric humidity) until the test has ended. About three weeks after the application, the degree of damage to the crop plants is rated in % damage in comparison to the development of the untreated control.
(§4) The figures denote: • 0% no damage (like untreated control) • 100% total destruction/damage

Winter barley = test: as above; format: in vivo; settings: rated about three weeks after application
Description: as §1, §2, §3, §4

[1] = application rate 125 g of ai/ha
[2] = application rate 250 g of ai/ha
[3] = safener alone, application rate 50 g of ai/ha

Structure (SMILES) | Winter wheat observed (% damage) (Winter wheat; [1]) [%] | Winter wheat observed (% damage) (Winter wheat; [2]) [%] | Winter barley observed (% damage) (Winter barley; application rate 60 g of ai/ha) [%] | Winter barley observed (% damage) (Winter barley; [1]) [%] | Winter barley observed (% damage) (Winter barley; [2]) [%] | Winter wheat observed (% damage) (Winter wheat; [3]) [%] | Winter barley observed (% damage) (Winter barley; [3]) [%] | other results
CCc1cc(Br)cc(C)c1C1=C(O)C2(CCC(C)CC2)NC1=O (stereo not drawn) [Example I-1-a-2] | 10 | 40 | 5 | 20 | 65 |  |  | 
CCCCCC(C)OC(=O)COc1ccc(Cl)c2cccnc12 (stereo not drawn) [cloquintocet-mexyl, 1-methyl-hexyl 5-chloro-quinolin-8-oxy-acetate, reference compound] |  |  |  |  |  | 0 | 0 | 
Cc1cc(-c2ccc(Cl)cc2)cc(C)c1C1=C(O)C2(CCOCC2)NC1=O [Example I-1-a-4] |  |  | 5 | 35 | 35 |  |  | 
CCCC1(C)NC(=O)C(c2c(C)cc(C)cc2C)=C1O (stereo not drawn) [Example I-1-a-1] |  |  |  |  |  |  |  | Winter barley observed (% damage) (Winter barley; application rate 110 g of ai/ha): 10%; Winter barley observed (% damage) (Winter barley; application rate 220 g of ai/ha): 25%; Winter barley observed (% damage) (Winter barley; application rate 440 g of ai/ha): 70%
CCOC(=O)C1=NN(c2ccc(Cl)cc2Cl)C(C)(C(=O)OCC)C1 (stereo not drawn) [Mefenpyr-diethyl, diethyl 1-(2,4-dichloro-phenyl)-4,5-dihydro-5-methyl-1H-pyrazole-3,5-dicarboxylate, reference compound] |  |  |  |  |  | 0 | 0 | 
CCc1cc(Br)cc(CC)c1C1=C(O)C(C)(C(C)C)NC1=O (stereo not drawn) [Example I-1-a-3] | 10 | 15 |  |  | 40 |  |  | 
